Consider 33 molecules from US20240343726A1, “PYRROLOPYRIDINE-3- AND 4-CARBOXAMIDE COMPOSITIONS AND METHODS FOR CELLULAR PROLIFERATION” (The Rockefeller University, priority 2021, published 2024).

Read-outs that look alike come from different tables or passages of the source.

The subject of assay [1] is adult utricular supporting cells. The experiment in a line: EdU proliferation assay in cultured adult utricles. The format is cell-based, mice. Conditions: 5 days of treatment, control=20. How it is done:
was tested in vitro to explore its mechanism of action and its utility in regenerating hair cells of the ear. The effects of the compounds were tested on utricles isolated from mice eight to twelve weeks of age. Internal ears were dissected from mice euthanized with fluothane and placed into ice-cold Hank's balanced salt solution, and cultured as previously described by Gnedeva, K. & Hudspeth [Proc. Natl. Acad Sci. 112, 14066-14071 (2015)]. For proliferation assays, utricles were cultured with 10 μM 5-ethynyl-2′-deoxyuridine (EdU) that was detected with click chemistry.
After 5 days of treatment, the N-benzyl thiazole evoked robust re-entry into the cell cycle of adult utricular supporting cells, yielding hundreds of EdU+daughter supporting cells (control=20 EdU+ supporting cells; the N-benzyl thiazole-treated=250 EdU+supporting cells; p=0.021 by an unpaired, one-tailed 1-test, control n=2, TO1 n=3).

The subject of assay [2] is Yap. The assay can be described thus: Yap nuclear translocation in supporting cells of cultured utricles (immunohistochemical analysis). The settings on record: 10 μM, 24 hr of treatment, control=0.6. The format is cell-based, mice.
Assay [3] has as its system phosphorylation of YAP. The experiment in a line: pYAP HTRF Assay (HEK 293A Cells). The format is cell-based. The settings on record: HEK293-A, inhibitory activity of phosphorylation of YAP, read-out: LATS1_ICKA_HEK293A IC50. How it is done: Use 3× dilution scheme in DMSO through column 10, lastly diluting further by 10× into column 11. Add 100% DMSO in serum-free and complete medium in columns 1 and 12 as a positive and negative control, respectively. To achieve a dilution of 1:500, use two 0.8 ml 96-well deep-well plates (ThermoFisher AB0765) pre-filled with the medium as intermediate (1:20) and final dilution plate (1:25). (Transfer row-wise) • Flick the cell plate carefully, three to four times or until all wells are clear of any residual liquid. Dispense 50 μL of the compound in medium into respective wells row-wise, incubate at 37° C. for 30 min • After a 30-minute incubation, flick the cell plate carefully, three to four times or until all wells are clear of any residual liquid. Dilute stock Lysis Buffer #4 (4×) in deionized water, complemented with blocking solution, the stock of which is 100×*. Add 75 μL 1× lysis buffer+blocking reagent mix into each well. Mix plate on a shaker for 30 min at room temperature • Dilute stock solution of total/phospho-YAP Eu cryptate & d2 antibody (each) in the ratio of 1:20 with detection buffer. Mix antibody solutions Eu3+ cryptate and d2 (each for total-Yap and phospho-YAP) in the ratio of 1:1*. Transfer 4 μL of the antibody mixture into two separate small-volume 384-well plates assigned for total-YAP and phospho-YAP. Give a short spin to the plates in a benchtop centrifuge set at 1000 rpm for 30 seconds • Row-wise, homogenize the lysate gently by pipetting it up and down, swirling the tip in the well to help scrape off any adherent cells (avoid bubble formation). Row-wise transfer 16 μL cell lysate into the low-volume 384-well plates with 4 μL total-YAP or phospho-YAP antibody reaction mix for a final volume of 20 μL. Spin down the plates in a benchtop centrifuge set at 1000 rpm for 30 seconds • Seal the plates using a vacuum sealer, incubate overnight at room temperature in the dark on a shaker; read the next day • Use a fluorescence emission read using compatible HTRF® reader—BioTek Synergy NEO. […] Included in Cisbio HTRF YAP total kit (#64YATPEH) & YAP phospho-S127 kit (#64YAPPEH).
(In general: In TR-FRET formats the signal depends on donor and acceptor labels being close together.)

Assay [4] has as its target LATS1 kinase (Homo sapiens (Human), UniProt O95835). The assay can be described thus: LATS1 Biochemical HTRF Assay. The method, then:
LATS1 Biochemical HTRF Assay
MgCl2 and [1 mM] DTT. 1× Enzymatic buffer diluted from 5× Enzymatic buffer*. Add 0.5 μL of 20× compound in 100% DMSO. […] MgCl2, [1 mM] DTIT and [5 mg/mL] BSA. 5×ERR prepared from 5× Enzymatic buffer with [25 mg/mL] BSA. Mix plate on plate shaker set at 1,350 rpm for 30 seconds, then centrifuge plate at 1,000 rpm for 1 minute. Incubate for 30 minutes at 25° C. on plate shaker set to 500 rpm. […] STK Substrate 1-biotin* then add 2 μL [10 mM] ATP. Mix plate on plate shaker set at 1,350 rpm for 30 seconds, then centrifuge plate at 1,000 rpm for 1 minute. Incubate for 40 minutes at 25° C. on plate shaker set to 500 rpm. […] Streptavidin-XL665 with 1×STK Antibody-Cryptate*. Mix plate on plate shaker set at 1,350 rpm for 30 seconds, then centrifuge plate at 1,000 rpm for 1 minute. Incubate for 60 minutes at 25° C. on plate shaker set to 500 rpm, covered from light.
*(Included in Cisbio KinEASE-STK Si HTRF Kit: 62ST1PEC)

Where [5] appears, read: 2 mM ATP, read-out: LATS1_HTRF_2 mM ATP IC50.

Chain of LATS1 kinase (O95835 589-1130): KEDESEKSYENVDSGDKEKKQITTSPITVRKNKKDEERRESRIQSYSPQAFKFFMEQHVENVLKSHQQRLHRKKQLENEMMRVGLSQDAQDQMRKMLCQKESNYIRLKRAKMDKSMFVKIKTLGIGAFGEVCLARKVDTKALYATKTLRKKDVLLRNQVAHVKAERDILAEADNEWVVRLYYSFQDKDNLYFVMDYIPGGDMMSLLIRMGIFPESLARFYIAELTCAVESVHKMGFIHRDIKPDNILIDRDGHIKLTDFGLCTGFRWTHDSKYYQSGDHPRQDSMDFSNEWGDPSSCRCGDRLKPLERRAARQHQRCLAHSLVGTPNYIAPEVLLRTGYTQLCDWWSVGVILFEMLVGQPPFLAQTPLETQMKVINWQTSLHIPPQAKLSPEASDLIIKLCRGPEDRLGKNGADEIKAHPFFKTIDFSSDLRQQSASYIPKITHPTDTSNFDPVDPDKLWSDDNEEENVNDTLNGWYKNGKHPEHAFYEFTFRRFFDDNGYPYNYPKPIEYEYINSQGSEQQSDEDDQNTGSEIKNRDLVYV

For `O=C(/N=c1\sccn1Cc1ccccc1)c1c[nH]c2ncccc12`, the “EdU+ supporting cells (re-entry into the cell cycle)” value in assay [1] turned out to be 250. Moreover, in assay [2], the “Yap nuclear translocation, quantified as a ratio to the constitutively expressed protein Sall2” value is 1.0. What is called IC50 is the concentration at which inhibition is half-maximal. As to `O=C(/N=C1\SCCN1Cc1ccccc1)c1c[nH]c2ncccc12` [Example 1, (Z)—N-(3-benzylthiazolidin-2-ylidene)-1H-pyrrolo[2,3-b]pyridine-3-carboxamide], the results for the IC50 in assay [3] and in assay [4] (setting [5]) were 19.7 nM and 11.2 nM, respectively.

Take `O=C(/N=C1\SCCN1c1ccccc1)c1c[nH]c2ncccc12` [Example 2]: the IC50 in assay [3] is 23 nM; in assay [4] (setting [5]), 0.829 nM.

For `O=C(/N=C1\SCCN1c1ccccc1Cl)c1c[nH]c2ncccc12` [Example 3], the 50% inhibitory concentration (IC50) in assay [3] turned out to be 5.15 nM; in assay [4] (setting [5]), 0.297 nM.

Consider `CCc1ccccc1N1CCS/C1=N\C(=O)c1c[nH]c2ncccc12` [Example 4], for which the results for the IC50 in assay [3] and in assay [4] (setting [5]) were 205 nM and 4.2 nM, respectively. For the molecule `COc1ccccc1N1CCS/C1=N\C(=O)c1c[nH]c2ncccc12` [Example 5], the IC50 in assay [3] is 1700 nM.

Consider `O=C(/N=C1\SCCN1c1ccccc1O)c1c[nH]c2ncccc12` [Example 6], for which the results for the IC50 in assay [3] and in assay [4] (setting [5]) were 1.3 nM and 0.59 nM, respectively.

In the case of `COc1ccc(N2CCS/C2=N\C(=O)c2c[nH]c3ncccc23)cc1` [Example 7], in assay [3], the IC50 amounted to 1850 nM. As to `O=C(/N=C1\SCCN1c1ccc(O)cc1)c1c[nH]c2ncccc12` [Example 8], the half-maximal inhibitory concentration (IC50) in assay [3] turned out to be 687 nM; in assay [4] (setting [5]), 13 nM. In the case of `COc1cccc(N2CCS/C2=N\C(=O)c2c[nH]c3ncccc23)c1` [Example 9], the IC50 in assay [3] is 1740 nM. Take `O=C(/N=C1\SCCN1c1cccc(O)c1)c1c[nH]c2ncccc12` [Example 10]: the results for the concentration for half-maximal inhibition (IC50) in assay [3] and in assay [4] (setting [5]) were 39.2 nM and 1.6 nM, respectively. In the case of `O=C(/N=C1\SCCN1C1CCCCC1)c1c[nH]c2ncccc12` [Example 11], the values for the half-inhibitory concentration (IC50) in assay [3] and in assay [4] (setting [5]) were 53 nM and 1.1 nM, respectively. Take `CC1(C)CS/C(=N\C(=O)c2c[nH]c3ncccc23)N1C1CCCCC1` [Example 12]: the IC50 in assay [3] stood at 37 nM; in assay [4], 1.1 nM. As for `O=C(/N=C1\SCC(CO)N1c1ccccc1)c1c[nH]c2ncccc12` (centres unmarked) [Example 13, (Z)—N-(4-(hydroxymethyl)-3-phenylthiazolidin-2-ylidene)-1H-pyrrolo[2,3-b]pyridine-3-carboxamide], the IC50 amounted to 45 nM in assay [3] and 0.44 nM in assay [4] (setting [5]). The like results for `CN(C)CC1CS/C(=N\C(=O)c2c[nH]c3ncccc23)N1c1ccccc1` (centres unmarked) [Example 14, (Z)—N-(4-((dimethylamino)methyl)-3-phenylthiazolidin-2-ylidene)-1H-pyrrolo[2,3-b]pyridine-3-carboxamide] were, in that order, 71 nM and 4.1 nM. Taken in the same sequence, the figures for `O=C(/N=C1\SCCN1c1ccccc1Cl)c1ccnc2[nH]ccc12` [Example 17] were 1480 nM and 82 nM.

As for `CC(O)CN1CCS/C1=N\C(=O)c1c[nH]c2ncccc12` (centres unmarked) [Example 19, (Z)—N-(3-(2-hydroxypropyl)thiazolidin-2-ylidene)-1H-pyrrolo[2,3-b]pyridine-3-carboxamide], the IC50 in assay [3] is 1720 nM; in assay [4] (setting [5]) it was 210 nM. As to `O=C(/N=C1\SCCCN1Cc1ccccc1)c1c[nH]c2ncccc12` [Example 25], the IC50 in assay [3] worked out at 77 nM; in assay [4] (setting [5]) it was 2.5 nM. As to `O=C(/N=C1\SCCCN1c1ccccc1)c1c[nH]c2ncccc12` [Example 26], the IC50 in assay [3] was found to be 69 nM. With `O=C(/N=C1\SCCCN1c1ccccc1Cl)c1ccnc2[nH]ccc12` [Example 27], the values for the half-maximal inhibitory concentration (IC50) in assay [3] and in assay [4] (setting [5]) were 5560 nM and 200 nM, respectively. Turning to `O=C(/N=C1\SCCCN1c1ccccc1Cl)c1c[nH]c2ncccc12` [Example 28], the IC50 in assay [3] came to 109 nM; in assay [4] (setting [5]) it was 1.6 nM. Regarding `O=C(/N=C1\SCCCN1C1CCCCC1)c1c[nH]c2ncccc12` [Example 30], the IC50 in assay [3] came out at 39 nM; in assay [4] (setting [5]) it was 2.9 nM. The like results for `CNC(=O)C1CS/C(=N\C(=O)c2c[nH]c3ncccc23)N(c2ccccc2)C1` (centres unmarked) [Example 34, (Z)-2-((1H-pyrrolo[2,3-b]pyridine-3-carbonyl)imino)-N-methyl-3-phenyl-1,3-thiazinane-5-carboxamide] were, in that order, 1710 nM and 23 nM.

As for `O=C(/N=C1\SCC(CO)CN1c1ccccc1)c1c[nH]c2ncccc12` (centres unmarked) [Example 35, (Z)—N-(5-(hydroxymethyl)-3-phenyl-1,3-thiazinan-2-ylidene)-1H-pyrrolo[2,3-b]pyridine-3-carboxamide], the IC50 in assay [3] worked out at 392 nM; in assay [4] (setting [5]) it was 3.9 nM. `O=C(/N=c1\sccn1-c1ccccc1Cl)c1ccnc2[nH]ccc12` [Example 41]: the IC50 in assay [3] came out at 4.75 nM. Regarding `CNC(=O)c1cs/c(=N\C(=O)c2ccnc3[nH]ccc23)n1-c1ccccc1Cl` [Example 58], the results for the IC50 in assay [3] and in assay [4] (setting [5]) were 527 nM and 48 nM, respectively. The like results for `CN(C)Cc1cs/c(=N\C(=O)c2c[nH]c3ncccc23)n1Cc1ccccc1` [Example 65, (Z)—N-(3-benzyl-4-((dimethylamino)methyl)thiazol-2(3H)-ylidene)-1H-pyrrolo[2,3-b]pyridine-3-carboxamide] were, in that order, 640 nM and 15 nM. The like results for `CN(C)Cc1cs/c(=N\C(=O)c2c[nH]c3ncccc23)n1-c1ccccc1Cl` [Example 66, (Z)—N-(3-(2-chlorophenyl)-4-((dimethylamino)methyl)thiazol-2(3H)-ylidene)-1H-pyrrolo[2,3-b]pyridine-3-carboxamide] were, in that order, 327 nM and 1.3 nM. Take `O=C(/N=c1\scc(CN2CCOCC2)n1-c1ccccc1Cl)c1c[nH]c2ncccc12` [Example 67]: the half-inhibitory concentration (IC50) in assay [3] amounted to 147 nM; in assay [4] (setting [5]), 1.1 nM. The like results for `COCCN(C)Cc1cs/c(=N\C(=O)c2c[nH]c3ncccc23)n1-c1ccccc1Cl` [Example 68] were, in that order, 270 nM and 2.8 nM. Taken in the same sequence, the figures for `CN(C)Cc1cs/c(=N\C(=O)c2c[nH]c3ncccc23)n1C1CCCCC1` [Example 69] were 68 nM and 1.8 nM. For `O=C(/N=C1\SCCN1c1ccccc1)n1ccc2ncccc21` [Example 84], in assay [3], the half-inhibitory concentration (IC50) worked out at 2290 nM. On the same count and under the same terms, in the case of `O=C(/N=c1\sccn1-c1ccccc1Cl)n1ccc2ncccc21` [Example 85] it was 31600 nM.
